“And” between values parts separate entries of the source, which are not always exact repeats. Identical values can stand only once. Inconclusive results and toxic doses are left out. Rule for the calls: active = survival T/C of 150% or more; inactive = T/C below 125% in these data.
System: CD2F1 mice, L1210 leukemia ip, survival T/C
Test: NCI In Vivo Anticancer Drug Screen. Data for tumor model L1210 Leukemia (intraperitoneal) in CD2F1 (CDF1) mice
Settings: endpoint: mean survival time, higher = longer survival
Summary of the method: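 In this screen, transplantable tumors were grown in mice given either the compound or its vehicle. Results were expressed as the treated measurement relative to the control measurement.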

[1] = dose: 100.0 mg/kg/injection, schedule: Q04DX002 (ip), vehicle: saline with Tween-80
[2] = dose: 100.0 mg/kg/injection, schedule: Q01DX009 (ip), vehicle: saline with Tween-80
[3] = dose: 200.0 mg/kg/injection, schedule: Q01DX009 (ip), vehicle: saline with Tween-80
[4] = dose: 400.0 mg/kg/injection, schedule: Q01DX009 (ip), vehicle: saline with Tween-80
[5] = dose: 12.5 mg/kg/injection, schedule: Q01DX009 (ip), vehicle: saline
[6] = dose: 25.0 mg/kg/injection, schedule: Q01DX009 (ip), vehicle: saline
[7] = dose: 100.0 mg/kg/injection, schedule: Q04DX003 (ip), vehicle: saline with Tween-80
[8] = dose: 200.0 mg/kg/injection, schedule: Q04DX003 (ip), vehicle: saline with Tween-80
[9] = dose: 400.0 mg/kg/injection, schedule: Q04DX003 (ip), vehicle: saline with Tween-80

Measured: T/C

O=c1c(Cl)c(Cl)cnn1-c1ccc([N+](=O)[O-])cc1[N+](=O)[O-]
inactive: dose: 100.0 mg/kg/injection, schedule: Q01DX001 (ip), vehicle: other 88 % of control | dose: 200.0 mg/kg/injection, schedule: Q01DX001 (ip), vehicle: other 88 % of control | dose: 400.0 mg/kg/injection, schedule: Q01DX001 (ip), vehicle: other 94 % of control

Cc1cc(Br)ccc1[NH-].Cc1cc(Br)ccc1[NH-].[Cl][Pt+2][Cl]
inactive: dose: 8.8 mg/kg/injection, schedule: Q04DX003 (ip), vehicle: saline with Tween-80 97 % of control | dose: 17.5 mg/kg/injection, schedule: Q04DX003 (ip), vehicle: saline with Tween-80 97 % of control | dose: 35.0 mg/kg/injection, schedule: Q04DX003 (ip), vehicle: saline with Tween-80 97 % of control | dose: 70.0 mg/kg/injection, schedule: Q04DX003 (ip), vehicle: saline with Tween-80 109 % of control

CC(CO)CCC(=O)C(C)C1C2(CC3C4CCC5CC(O)CCC5(C)C4CCC31C)SCCS2 (stereo not given)
inactive: [1] 86 % of control | dose: 400.0 mg/kg/injection, schedule: Q04DX002 (ip), vehicle: saline with Tween-80 92 % of control

Cc1cc(C)c(N2C(=O)CC(Sc3ccccc3N)C2=O)c(C)c1 (stereo not given)
inactive: [2] 92 % of control | [3] 96 % of control | [4] 94 % of control

NCC(Cc1ccc(O)cc1)P(=O)(O)O (stereo not given)
inactive: [2] 102 % of control | [3] 105 % of control | [4] 93 % of control

Cc1cn([C@@H]2C[C@H](CO)[C@@H](O)C2)c(=O)[nH]c1=O
inactive: dose: 133.0 mg/kg/injection, schedule: Q01DX009 (ip), vehicle: saline 118 % of control | dose: 200.0 mg/kg/injection, schedule: Q01DX009 (ip), vehicle: saline 121 % of control | dose: 450.0 mg/kg/injection, schedule: Q01DX009 (ip), vehicle: saline 106 % of control

O=NC1C(=O)C2CC1CC2C(=O)OC(=O)C1CC2CC1C(=O)C2N=O (stereo not given)
inactive: dose: 75.0 mg/kg/injection, schedule: Q01DX001 (ip), vehicle: other 108 % of control | dose: 150.0 mg/kg/injection, schedule: Q01DX001 (ip), vehicle: other 108 % of control

CCCCCCCCCCCC(=O)NC(=S)Nc1cccc(C(F)(F)F)c1
inactive: dose: 100.0 mg/kg/injection, schedule: Q01DX009 (ip), vehicle: other 95 % of control | dose: 200.0 mg/kg/injection, schedule: Q01DX009 (ip), vehicle: other 103 % of control | dose: 400.0 mg/kg/injection, schedule: Q01DX009 (ip), vehicle: other 103 % of control

O=S(=O)(O)SNCCN1CCOCC1
inactive: dose: 6.25 mg/kg/injection, schedule: Q01DX009 (ip), vehicle: saline 106 % of control | dose: 6.25 mg/kg/injection, schedule: Q04DX003 (ip), vehicle: saline 104 % of control | [5] 98 % of control | dose: 12.5 mg/kg/injection, schedule: Q04DX003 (ip), vehicle: saline 102 % of control | [6] 107 % of control | dose: 25.0 mg/kg/injection, schedule: Q04DX003 (ip), vehicle: saline 101 % of control

CCCC(=O)NNC(=O)c1ccccn1
inactive: dose: 100.0 mg/kg/injection, schedule: Q01DX009 (ip), vehicle: saline sonified 109 % of control | [7] 101 % of control | [8] 104 % of control | [9] 106 % of control

CSc1n[nH]c(N)n1
inactive: [7] 94 % of control | [8] 94 % of control | [9] 90 % of control

[N-]=[N+]=NC1=C(Br)C(=O)OC1COC(=O)c1ccccc1 (stereo not given)
inactive: dose: 50.0 mg/kg/injection, schedule: Q04DX002 (ip), vehicle: saline with Tween-80 90 % of control | [1] 90 % of control

COC1OC(COC(=O)c2ccccc2)C2OC(=O)OC12 (stereo not given)
inactive: [7] 93 % of control | [8] 90 % of control | [9] 102 % of control

O=C(O)CCC(=O)c1ccc(Br)cc1
inactive: [2] 94 % of control | [7] 101 % of control | [3] 103 % of control | [8] 97 % of control | [4] 91 % of control | [9] 89 % of control

O=C(Cc1ccccc1)C(Br)C(Br)c1ccccc1 (stereo not given)
inactive: dose: 25.0 mg/kg/injection, schedule: Q01DX009 (ip), vehicle: saline with Tween-80 107 % of control | [7] 92 % of control

Nc1nc2c(c(=O)[nH]1)N(Cc1c[nH]c(=O)[nH]c1=O)C(CNc1ccc(C(=O)NC(CCC(=O)O)C(=O)O)cc1)CN2 (stereo not given)
inactive: dose: 100.0 mg/kg/injection, schedule: Q01DX001 (ip), vehicle: saline with Tween-80 101 % of control | dose: 200.0 mg/kg/injection, schedule: Q01DX001 (ip), vehicle: saline with Tween-80 92 % of control | dose: 400.0 mg/kg/injection, schedule: Q01DX001 (ip), vehicle: saline with Tween-80 101 % of control

CC(=O)OCCN1CCN(CCCN2c3ccccc3Sc3ccc(C(F)(F)F)cc32)CC1
inactive: dose: 2.6 mg/kg/injection, schedule: Q03HX024 (ip), vehicle: saline 108 % of control | dose: 4.0 mg/kg/injection, schedule: Q03HX024 (ip), vehicle: saline 104 % of control | dose: 6.0 mg/kg/injection, schedule: Q03HX024 (ip), vehicle: saline 121 % of control | dose: 12.5 mg/kg/injection, schedule: Q01DX001 (ip), vehicle: saline 118 % of control and 105 % of control | [5] 100 % of control | dose: 25.0 mg/kg/injection, schedule: Q01DX001 (ip), vehicle: saline 117 % of control and 118 % of control | [6] 95 % of control | dose: 50.0 mg/kg/injection, schedule: Q01DX001 (ip), vehicle: saline 114 % of control | dose: 50.0 mg/kg/injection, schedule: Q01DX009 (ip), vehicle: saline 89 % of control | dose: 100.0 mg/kg/injection, schedule: Q01DX001 (ip), vehicle: saline 109 % of control

O=C1N(CCO)CCN1/N=C/c1ccc([N+](=O)[O-])o1
inactive: [7] 93 % of control | [8] 102 % of control | [9] 95 % of control
